Assay results published in patent US6949356B1, “Methods for improving secondary metabolite production in fungi” (Microbia, Inc., priority 1999, dated 2005).

Tested on: S. cerevisiae strain 22409
Test: Lovastatin resistance test: yeast transformants spotted to SC-URA agar containing different concentrations of lovastatin (FIG. 1)
Assay type: cell-based, Saccharomyces cerevisiae
Method: These genes are predicted to encode proteins, denoted by Genbank accession numbers AAD34558 (hereafter referred to as PUMP1) and AAD34564 (hereby referred to as PUMP2), that are members of the MFS class of transporters. As described above, some MFS transporters are known to confer resistance to toxic compounds. PUMP1 and PUMP2 were tested for their ability to confer resistance to otherwise toxic levels of lovastatin when expressed in the fungus S. cerevisiae.
The polyA+ fraction of the A. terreus total RNA was isolated using Oligotex beads (Qiagen Inc.). Purified polyA+ RNA (5 μg) was used to generate complementary DNA (cDNA) using Superscript Reverse Transcriptase (Gibco BRL, 9800 Medical Center Drive, PO Box 6482, Rockville, Md. 20849) according to the instructions of the manufacturer. The cDNA was then used to isolate and clone PUMP1 and PUMP2 gene sequences using the polymerase chain reaction (PCR) and Gateway (Life Technologies) Cloning Technology (U.S. Pat. No. 5,888,732). Oligonucleotide sequences used for PCR were 5′-[…]-3′ (SEQ ID NO: 7) and 5′-[…]-3′ (SEQ ID NO: 8) for PUMP1. Oligonucleotide sequences used for PUMP2 PCR were 5′-[…]-3′ (SEQ ID NO: 9) and 5′-[…]-3′ (SEQ ID NO: 10). The resultant plasmids, MB1333 and MB1334, were designed to express PUMP1 and PUMP2, respectively, under control of the S. cerevisiae TEF1 promoter. The plasmids carry a functional URA3 gene to allow for selection of the plasmid on media lacking uracil in a ura3 mutant strain. These plasmids also contained a 2-micron origin for high-copy replication in yeast. […] Environ. Microbiol. 63: 33414 (1997) as pRH127-3, that expresses a soluble form of HMG CoA reductase under control of the yeast GPD1 promoter and is known to confer resistance to increased levels of lovastatin (Donald et al., Appl. Environ. Microbiol. 63: 3341-4 (1997)).
MB1333, MB1334, MB969 and MB1344 were transformed into the yeast strain 22409 (Research Genetics, USA) using standard transformation methods for S. cerevisiae (Biotechniques, 1992, 13(1): 18). Strain 22409 is derived from the S288c strain background of S. cerevisiae, and its complete genotype is as follows: MATa/α, his3Δ1/his3Δ1, leu2Δ1/leu2Δ0, ura3Δ0/ura3Δ0, LYS2/lys2Δ0, MET15/met15Δ0 pdr5::G418/PDR5. Transformants were grown overnight at 30° C. in synthetic complete media lacking uracil (SC-U) to maintain selection for the plasmid. Cultures were diluted 1:10 in sterile water, and 5 μl of each strain was spotted to SC-URA agar containing different concentrations of lovastatin as shown in FIG. 1.

CC[C@H](C)C(=O)O[C@H]1C[C@@H](C)C=C2C=C[C@H](C)[C@H](CC[C@@H]3C[C@@H](O)CC(=O)O3)[C@H]21 [lovastatin]
growth inhibition by lovastatin (positive control strain carrying MB1344 (soluble fragment of HMG CoA reductase overexpressed), highest concentration of lovastatin tested, 150 μg/ml): no obvious growth inhibition | growth inhibition by lovastatin (strain expressing PUMP2 (MB1334), lowest concentration of lovastatin tested, 50 μg/mL): growth inhibition | growth inhibition by lovastatin (strain harboring MB1333 (expressing PUMP1), highest concentration of lovastatin tested, 150 μg/ml): no obvious growth inhibition | growth inhibition by lovastatin (vector-only control strain (MB969), lowest concentration of lovastatin tested, 50 μg/mL): growth inhibition
